Measured values: the supplement of paper PMC13380429

Key:
Conditions in all cases: 72 h
[1] = tested on: U2OS; experiment: drug sensitivity score (DSS) for viability; higher = more toxic; extreme values may be limits of the assay
[2] = tested on: Vero E6; experiment: as above
[3] = tested on: HepG2; experiment: as above
[4] = tested on: Calu-3; experiment: as above
[5] = tested on: Caco-2; experiment: as above
[6] = tested on: U2OS; experiment: cell viability relative to DMSO; higher = less toxic
[7] = tested on: Vero E6; experiment: as above
[8] = tested on: HepG2; experiment: as above
[9] = tested on: Calu-3; experiment: as above
[10] = tested on: Caco-2; experiment: as above
[11] = tested on: U2OS; experiment: relative viability EC50 (midpoint between 100% and the lowest measured viability); higher = less toxic
[12] = tested on: Vero E6; experiment: as above
[13] = tested on: HepG2; experiment: as above
[14] = tested on: Calu-3; experiment: as above
[15] = tested on: Caco-2; experiment: as above

| SMILES | drug sensitivity score [1] | drug sensitivity score [2] | drug sensitivity score [3] | drug sensitivity score [4] | drug sensitivity score [5] | cell viability ([6]; 1 nM) [%] | cell viability ([6]; 10 nM) [%] | cell viability ([6]; 100 nM) [%] | cell viability ([6]; 1000 nM) [%] | cell viability ([6]; 10000 nM) [%] | cell viability ([7]; 1 nM) [%] | cell viability ([7]; 10 nM) [%] | cell viability ([7]; 100 nM) [%] | cell viability ([7]; 1000 nM) [%] | cell viability ([7]; 10000 nM) [%] | cell viability ([8]; 1 nM) [%] | cell viability ([8]; 10 nM) [%] | cell viability ([8]; 100 nM) [%] | cell viability ([8]; 1000 nM) [%] | cell viability ([8]; 10000 nM) [%] | cell viability ([9]; 1 nM) [%] | cell viability ([9]; 10 nM) [%] | cell viability ([9]; 100 nM) [%] | cell viability ([9]; 1000 nM) [%] | cell viability ([9]; 10000 nM) [%] | cell viability ([10]; 1 nM) [%] | cell viability ([10]; 10 nM) [%] | cell viability ([10]; 100 nM) [%] | cell viability ([10]; 1000 nM) [%] | cell viability ([10]; 10000 nM) [%] | relative viability EC50 [11] [µM] | relative viability EC50 [12] [µM] | relative viability EC50 [13] [µM] | relative viability EC50 [14] [µM] | relative viability EC50 [15] [µM] |
| --- | --- | --- | --- | --- | --- | --- | --- | --- | --- | --- | --- | --- | --- | --- | --- | --- | --- | --- | --- | --- | --- | --- | --- | --- | --- | --- | --- | --- | --- | --- | --- | --- | --- | --- | --- |
| CNC(=O)c1c(C)oc2cc(Oc3ncnc4cc(OC)c(OC)cc34)ccc12 [fruquintinib] | 0 | 0 | 0 | 0 | 0 | 102 | 104 | 102 | 102 | 90.8 | 96.1 | 93.4 | 102 | 94.5 | 91.6 | 107 | 109 | 100 | 86.5 | 103 | 103 | 103 | 98.7 | 107 | 98.8 | 90 | 97.4 | 97.8 | 98.9 | 94.7 | > 10 | > 10 | > 10 | > 10 | > 10 |
| COc1cc2c(=O)c(-c3ccc(O)cc3)coc2cc1O [glycitein] | 0 | 0 | 0 | 0 | 0 | 98.1 | 99.3 | 102 | 98.2 | 99.5 | 102 | 103 | 98.2 | 99.6 | 94.4 | 105 | 103 | 99.2 | 111 | 92.9 | 92.9 | 99.6 | 101 | 101 | 96.7 | 86.4 | 97.3 | 101 | 96 | 94.2 | > 10 | > 10 | > 10 | > 10 | > 10 |
| CC(C)C[C@@H](NC(=O)[C@H](C)NC(=O)CNC(=O)[C@@H](NC=O)C(C)C)C(=O)N[C@@H](C)C(=O)N[C@@H](C(=O)N[C@H](C(=O)N[C@@H](C(=O)N[C@@H](Cc1c[nH]c2ccccc12)C(=O)N[C@H](CC(C)C)C(=O)N[C@@H](Cc1c[nH]c2ccccc12)C(=O)N[C@H](CC(C)C)C(=O)N[C@@H](Cc1c[nH]c2ccccc12)C(=O)N[C@H](CC(C)C)C(=O)N[C@@H](Cc1c[nH]c2ccccc12)C(=O)NCCO)C(C)C)C(C)C)C(C)C [gramicidin] | 12.3 | 0 | 0 | 3.7 | 0 | 97.5 | 94.3 | 32.4 | 97.4 | 20.3 | 99.2 | 94.3 | 94 | 92.5 | 98.3 | 101 | 100 | 26.4 | 114 | 121 | 109 | 94.2 | 87.9 | 95.7 | 42.9 | 90 | 118 | 54.6 | 106 | 90.7 | 0.466 | > 10 | > 10 | 2.55 | > 10 |
| N=C(N)NCCN1CCCCCCC1 [guanethidine] | 0 | 0 | 0 | 0 | 0 | 102 | 96.6 | 99.7 | 98.8 | 103 | 105 | 97.2 | 95.2 | 109 | 101 | 99.3 | 102 | 96.4 | 106 | 93.6 | 104 | 102 | 99.6 | 95 | 97.3 | 92.3 | 96.6 | 91 | 91.8 | 101 | > 10 | > 10 | > 10 | > 10 | > 10 |
| N=C(N)NCCSSCCNC(=N)N [guanidinoethyldisulfide-bicarbonate] | 0 | 0 | 0 | 0 | 0 | 106 | 96.8 | 100 | 96.8 | 102 | 97.5 | 96.3 | 102 | 96.2 | 91.4 | 93 | 101 | 96.4 | 97.9 | 93 | 99.7 | 106 | 99.9 | 98.6 | 108 | 101 | 87.2 | 93.6 | 101 | 91.8 | > 10 | > 10 | > 10 | > 10 | > 10 |
| CC1(C)O[C@@H]2C[C@H]3[C@@H]4CCC5=CC(=O)CC[C@]5(C)[C@@]4(F)[C@@H](O)C[C@]3(C)[C@]2(C(=O)CCl)O1 [halcinonide] | 0.1 | 0 | 0 | 0 | 0 | 102 | 103 | 96.7 | 89.6 | 97.6 | 101 | 103 | 97.4 | 98.4 | 98.1 | 104 | 98 | 97.7 | 95.8 | 96 | 106 | 98.3 | 96.6 | 100 | 102 | 106 | 99.4 | 106 | 99 | 104 | > 10 | > 10 | > 10 | > 10 | > 10 |
| CC1(C)S[C@@H]2[C@H](N3C(=O)[C@@H](c4ccccc4)NC3(C)C)C(=O)N2[C@H]1C(=O)O [hetacillin] | 0 | 0 | 0 | 0 | 0 | 100 | 95.7 | 101 | 95 | 99.5 | 109 | 97.6 | 94.7 | 110 | 90.4 | 95.6 | 101 | 102 | 110 | 93.8 | 99.4 | 94.3 | 104 | 100 | 113 | 98.3 | 92.7 | 96.8 | 93.4 | 86.4 | > 10 | > 10 | > 10 | > 10 | > 10 |
| Oc1ccc(C(O)CNCCCCCCNCC(O)c2ccc(O)c(O)c2)cc1O (stereo not given) [hexoprenaline] | 0 | 0 | 0 | 0 | 0 | 102 | 97.6 | 95.4 | 102 | 95 | 103 | 109 | 99.2 | 101 | 98.7 | 103 | 104 | 110 | 93.2 | 103 | 95.8 | 97.9 | 99.7 | 97.9 | 100 | 97.3 | 102 | 93.7 | 95.9 | 88.3 | > 10 | > 10 | > 10 | > 10 | > 10 |
| O=[N+]([O-])/N=C1\NCCN1Cc1ccc(Cl)nc1 [imidacloprid] | 0 | 0 | 0 | 0 | 0 | 97.4 | 95.7 | 103 | 92.3 | 94.4 | 95.1 | 95.8 | 96.7 | 98 | 96.5 | 98.2 | 109 | 99.7 | 98.9 | 93.1 | 103 | 98.5 | 103 | 98.8 | 106 | 104 | 94.6 | 99.8 | 88.6 | 104 | > 10 | > 10 | > 10 | > 10 | > 10 |
| CC1(C)C(/C=C/C=C/C=C/C=C2\N(CCCCS(=O)(=O)O)c3ccc4ccccc4c3C2(C)C)=[N+](CCCCS(=O)(=O)[O-])c2ccc3ccccc3c21 [indocyanine-green] | 0 | 0 | 0 | 0 | 0.4 | 105 | 101 | 97.4 | 99.1 | 95.4 | 96.5 | 99.4 | 102 | 101 | 94.1 | 93.1 | 89.4 | 106 | 94.9 | 94.5 | 98.6 | 108 | 91.6 | 96 | 88.3 | 98.2 | 87.1 | 105 | 94.8 | 86.9 | > 10 | > 10 | > 10 | > 10 | > 10 |
